# Test results taken from paper PMC3880221 (Chembiochem : a European journal of chemical biology, 2011).
# What was measured:
# NQO1 (QR1) = NQO1 (QR1) (Homo sapiens, UniProt P15559); test: recombinant human NQO1 activity after treatment with […] compound ± NADH; assay type: biochemical
# [1] = biological target: T1, NRH:quinone oxidoreductase 2 (NQO2, QR2) (Homo sapiens, UniProt P16083); test: co-crystal structure; assay type: binding
# T1 sequence (P16083 1-231): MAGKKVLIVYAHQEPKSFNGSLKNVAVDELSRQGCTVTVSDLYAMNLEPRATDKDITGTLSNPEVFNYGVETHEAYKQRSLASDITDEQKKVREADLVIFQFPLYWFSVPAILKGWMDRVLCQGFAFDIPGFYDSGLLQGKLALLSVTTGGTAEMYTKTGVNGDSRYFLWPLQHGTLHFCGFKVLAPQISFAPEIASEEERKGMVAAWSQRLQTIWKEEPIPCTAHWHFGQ
# NQO1 (QR1), sequence (P15559 whole entry): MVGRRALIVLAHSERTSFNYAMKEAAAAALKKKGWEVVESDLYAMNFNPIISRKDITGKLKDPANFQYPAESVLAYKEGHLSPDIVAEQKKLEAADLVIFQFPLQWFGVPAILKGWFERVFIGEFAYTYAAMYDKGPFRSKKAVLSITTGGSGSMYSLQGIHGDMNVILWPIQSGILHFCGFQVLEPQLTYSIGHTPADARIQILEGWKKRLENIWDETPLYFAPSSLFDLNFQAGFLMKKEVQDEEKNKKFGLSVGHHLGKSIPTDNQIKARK
partition ratio (NQO1 (QR1)),Kd [1],Compound
3.5 (partition ratio),,"COC1=CC(=O)c2c(c(COc3ccc([N+](=O)[O-])cc3)c(C)n2C)C1=O [1a, 5-methoxy-1,2-dimethyl-3-(4-nitrophenoxymethyl)indole-4,7-dione]"
,Kd1 = 71; Kd2 = 19 μM,"Cc1c(COc2ccc([N+](=O)[O-])cc2)c2c(n1C)C(=O)C=C(NCCCCN)C2=O [2c, 5-(4-Aminobutyl)amino-1,2-dimethyl-3-(4-nitrophenoxy)methylindole-4,7-dione]"
